The values below come from the METLIN SMRT retention time set (Domingo-Almenara et al. 2019).

Structures are written as SMILES.

The data set is described as follows: gradient 5% acetonitrile 3 min, to 50% in 2 min, to 85% in 15 min, held 3 min, 100 µL/min. As to conditions: column: Zorbax Extend-C18 2.1 x 50 mm; eluents: water / acetonitrile, 0.1% formic acid. The method, boiled down:
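Using water and acetonitrile that each contained 0.1% formic acid, mixtures of ~100 pure standards were separated at 100 μL/min on a Zorbax Extend-C18 column (2.1 × 50 mm, 1.8 μm). The HPLC fed a quadrupole time-of-flight mass spectrometer working in positive and negative ionization mode, with dead and dwell volumes of 40 μL and 900 μL. Data were acquired over 3 months. Retention time was read from computationally picked adduct peaks after manual inspection of each.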
`O=C(NCc1ccc(-c2noc(-c3ccc(F)c(F)c3)n2)s1)C1CC1` displayed an RP-LC retention time of 903 s.
As for `COc1cc(-c2ccc(Cl)cc2)nc2ccc(NC(=O)c3cccs3)cc12`, the figure is 814 s.
`CCC(Oc1ccc(=O)n(-c2ccc(F)cc2)n1)C(=O)NCc1ccco1` (stereo not drawn) came in with an RP-LC retention time of 733 s.
The result for `CC(NC(=O)c1sc2ncccc2c1-n1cccc1)c1ccc2c(c1)OCCO2` (stereo not drawn) reads 1020 s; that for `CC(=O)N1C[C@@H]2CCCN3CCC[C@@H]([C@H]23)[C@H]1CCCC(=O)NCCC(C)C`, 583 s; that for `CCOc1ccc(-c2noc(Cn3nc(-c4ccc5c(c4)OCO5)ccc3=O)n2)cc1`, 1130 s.
Compound `Nc1nc(SCc2ccccc2Cl)c2ncn(C3OC(CO)C(O)C3O)c2n1` (stereo not drawn) returned an RP-LC retention time of 672 s.
The result for `Cc1noc(-c2nc(-c3cccc(F)c3)no2)n1` reads 990 s; that for `Cc1nc(-c2cc(S(=O)(=O)N3CCC(C(=O)NCc4cccs4)CC3)c(C)s2)no1`, 882 s; that for `COc1ccc(-c2cc(C(=O)Nc3ccccc3)nn2C2CCS(=O)(=O)C2)cc1` (stereo not drawn), 911 s.
As for `CCOc1cc(C(=O)Nc2ccc(F)cc2F)nc2c(F)cccc12`, the figure is 1350 s; as for `COc1cc([C@@H]2c3cc4c(cc3[C@H](O)[C@@H](CO)[C@@H]2C(=O)NCc2cc(F)cc(F)c2)OCO4)cc(OC)c1OC`, 737 s.
For `CCN1CCN(C(=O)c2cc(-c3ccc(C)cc3)cn2CC)CC1`, the RP-LC retention time turned out to be 678 s.
In the case of `Cc1ccc(-c2noc(Cc3nnc(-c4ccc(C)c(C)c4)o3)n2)cc1C`, the RP-LC retention time is 1230 s.
The result for `CCn1c(=O)sc2cc(S(=O)(=O)N3CCC(C(=O)NCC(C)c4ccccc4)CC3)ccc21` (stereo not drawn) reads 929 s; that for `O=C(Cn1c(=O)c2cc(C3CC3)nn2c2ncccc21)Nc1ccc2c(c1)OCCO2`, 736 s.
As for `COc1cccc(C2Cn3nnc(-c4nc(-c5cccc(F)c5)no4)c3CO2)c1` (stereo not drawn), the figure is 1130 s.
With `COC(=O)c1ccc(CN2CCN(c3cnn4c(C5CC5)nnc4c3)CC2)cc1`, the RP-LC retention time came out at 571 s.
`CCN1CCn2cc(C(=O)NCc3cccc(Br)c3)nc2C1`: the RP-LC retention time stood at 600 s.
The result for `CCCNC(=O)N(C1CCOCC1)C1CCN(S(=O)(=O)c2ccccc2CC)CC1` reads 899 s.
Compound `Cc1cccc(C)c1NC(=O)C1CCN(S(=O)(=O)c2ccc3c(c2)NC(=O)C(C)O3)CC1` (stereo not drawn) showed an RP-LC retention time of 824 s.
The result for `Cc1oc(-c2ccc(NC(=O)c3ccsc3)cc2)nc1Cn1cccn1` reads 823 s; that for `CC(C)C(=O)Nc1c(C(=O)N2CCN(c3ccccn3)CC2)oc2ccccc12`, 649 s; that for `CCN1CCN(c2ccc(NC(=O)c3ccc(C(F)(F)F)cc3)cn2)C1=O`, 823 s.
The compound `Cc1ccc(S(=O)(=O)CCc2noc(-c3ccc4c(c3)OCO4)n2)cc1` returned an RP-LC retention time of 931 s.
As for `COCCCNC(=O)C1CCN(c2cncnc2N(C)C)CC1`, the figure is 568 s; as for `CCNC(=O)C1N(C(C)C)C(=O)C12CCCCC2` (stereo not drawn), 630 s.
`O=C(CSc1nnc2c3sc(N4CCCC4)nc3ncn12)Nc1ccccc1` came in with an RP-LC retention time of 772 s.
In turn, `CCOc1ccc(S(=O)(=O)N2CCC(c3noc(-c4ccc(Cl)cc4)n3)CC2)cc1` displayed an RP-LC retention time of 1260 s.
As for `CC1CCN(c2nc(-c3ccc(Br)cc3)nc3ccccc23)CC1`, the RP-LC retention time was 955 s.
In the case of `CN(CC(=O)Nc1ccc2c(c1)OCO2)c1nc2c(F)cccc2s1`, the RP-LC retention time is 828 s.
As for `Cc1ccc(OCC(=O)N(Cc2ccc(N(C)C)cc2)C2CCS(=O)(=O)C2)cc1C` (stereo not drawn), the figure is 774 s; as for `O=C(Nc1cccc(F)c1)N1CCCC(Cn2c(C3CC3)nc3cccnc32)C1` (stereo not drawn), 676 s; as for `COc1ccc(NC(=O)Cc2c(C)nn(-c3nc(-c4ccc(Cl)cc4)cs3)c2C)cc1`, 1210 s.
Take `O=C(NCCc1ccc(F)cc1)C(=O)Nc1ccc(Cl)cn1`: the RP-LC retention time stood at 918 s.
As for `Cc1noc(C)c1S(=O)(=O)N1CCc2nc[nH]c2C1`, the figure is 570 s; as for `Cc1ccc(N2C(=O)C3N=NN(Cc4nc(-c5ccc(OC(C)C)cc5)no4)C3C2=O)cc1F` (stereo not drawn), 1140 s.
As for `CCc1ccc(-n2ncc3c(=O)n(Cc4nc(-c5ccccc5OC)no4)cnc32)cc1`, the figure is 1040 s.
As for `COc1ccc(NC(=O)Cn2c(C)cc(-c3nnc(-c4ccc(F)cc4)o3)c2C)cc1F`, the figure is 962 s.
`Cc1cc(C(F)(F)F)nn1CC(=O)NCC1Cn2cccc2C(=O)N1CC(C)C` (stereo not drawn) came in with an RP-LC retention time of 797 s.
The result for `CN1C(=O)COc2ccc(-c3csc(NC(=O)COc4ccc(Cl)cc4)n3)cc21` reads 1010 s; that for `CCc1nc(-c2cc(S(=O)(=O)N3CCC(C(=O)NCc4ccc(C)o4)CC3)c(C)s2)no1`, 969 s; that for `CCS(=O)(=O)NCc1ccc2c(c1)CCN2C(=O)c1ccc(Cl)cc1`, 829 s.
Turning to `COc1ccc(-n2cc(C(=O)Nc3cnc4ccccc4c3)nn2)cc1`, the RP-LC retention time was found to be 821 s.
Turning to `Cc1csc(-c2cc(S(=O)(=O)N3c4ccccc4CC3C)c(C)s2)n1` (stereo not drawn), the RP-LC retention time came out at 1220 s.
In turn, `COc1ccc2c(c1)C1(CCN(C(=O)c3ccccc3OC)C1)C(=O)N2` (stereo not drawn) returned an RP-LC retention time of 709 s.
`COc1ccc(-n2c(=O)n(C)c(=O)c3cc(C(=O)NCc4ccccc4)cnc32)cc1` registered an RP-LC retention time of 849 s.
The result for `Cc1ccsc1C(=O)N1CCCC2(CC1)CN(C)C(=O)O2` (stereo not drawn) reads 661 s; that for `CO[C@H]1C(=O)N(C2CCN(S(=O)(=O)c3c(C)noc3C)CC2)[C@H]1c1ccncc1`, 625 s.
The result for `COc1cn(CC(=O)Nc2ccccc2C)c(CSc2nc(C)cs2)cc1=O` reads 628 s; that for `CCC(=O)N1CCN(Cc2nc3cc(NC(=O)CC(C)C)ccc3n2C)CC1`, 603 s.
The result for `O=C1CCCCC(C(=O)Nc2cccc(Cl)c2)N1` (stereo not drawn) reads 712 s.
Take `O=C(O)c1cc(-c2cccc3ccccc23)nc2ccc(Br)cc12`: the RP-LC retention time is 1090 s.
`Cc1ccc(-n2c(=O)c3sccc3n(Cc3nc(-c4ccc(C(F)(F)F)cc4)no3)c2=O)cc1` yielded an RP-LC retention time of 1190 s.
The result for `CCN1CCN(CCCNC(=O)c2c(N3CCCC3=O)c3cc(F)ccc3n2CC)CC1` reads 602 s; that for `COCC(=O)Nc1cccn2nc(C(C)C)nc12`, 717 s; that for `O=C(c1cccnc1)N1CCCCC1c1nncn1-c1ccccc1` (stereo not drawn), 596 s.
As for `O=C(NCc1ccccc1F)C1CCCN(c2nc3ccsc3c(=O)n2Cc2ccccc2)C1` (stereo not drawn), the figure is 943 s.
In turn, `O=C(CC1(O)C(=O)Nc2c(Cl)cc(Cl)cc21)c1cccc([N+](=O)[O-])c1` (stereo not drawn) displayed an RP-LC retention time of 792 s.
On to `O=Cc1cn(Cc2ccc(Cl)cc2)c2ccccc12`, for which the RP-LC retention time came to 968 s.
The result for `CC1CCN(C(=O)CCC(=O)N2CCN(c3nc4cccnc4s3)CC2)CC1` reads 688 s; that for `COc1ccc(C2(C(=O)N3CCC([C@H]4[C@@H](OC)C(=O)N4C(C)C)CC3)CC2)cc1`, 776 s; that for `Cc1cccc2c1NC(=O)C2(O)CC(=O)c1ccccc1Cl` (stereo not drawn), 729 s.
As for `CC(C)c1cc(CNc2nc(Nc3cc(C4CC4)[nH]n3)cc(N3CCN(C)CC3)n2)on1`, the figure is 647 s; as for `Cc1ccc(NC(=O)c2c(O)c3cccnc3n(-c3ccc(F)cc3)c2=O)c(C)c1`, 1320 s; as for `COc1ccccc1C(=O)Nc1cccn2nc(C3CCC3)nc12`, 1140 s.
Take `O=C(c1ccc(Br)cc1)N1CCN(C(=O)c2cc(-c3ccncc3)n[nH]2)CC1`: the RP-LC retention time was 616 s.
The result for `Cc1nc(C)c(C(=O)Nc2cc(Cl)ccc2C)s1` reads 837 s; that for `COCCN1CCn2cc(S(=O)(=O)Nc3cccc(OC)c3)cc2C1=O`, 670 s; that for `Cc1cc(C)cc(NC(=O)C2CCCN(c3cc(=O)n(C)c(=O)n3C)C2)c1` (stereo not drawn), 783 s.
The result for `CCOc1ccc(NC(=O)Cn2c(C)nc3c(sc4nc(-c5ccccc5)ccc43)c2=O)cc1` reads 1070 s; that for `Cc1cc(C)cc(NC(=O)Cn2nc3c(N(C)C4CCCCC4)nccn3c2=O)c1`, 846 s; that for `CSc1cccc(NC(=O)Cn2c(C)nc3c(sc4nc(-c5ccccc5)ccc43)c2=O)c1`, 1100 s.
`O=C(NCc1ccco1)c1cc2c(s1)CCN(C(=O)c1ccc(Cl)cc1)C2` showed an RP-LC retention time of 846 s.
On to `CCc1ccc(-c2cc(C(=O)N3CCN(c4cc(=O)n(C(C)C)c(=O)n4C(C)C)CC3)[nH]n2)cc1`, for which the RP-LC retention time came out at 946 s.
Compound `O=C(Nc1ccccc1NC(=O)c1ccc(Br)o1)c1cccnc1` displayed an RP-LC retention time of 669 s.
On to `O=C(NC1CCCCCC1)c1ccc2c(c1)nc1n2CCN(Cc2ccccc2)C1=O`, for which the RP-LC retention time came out at 829 s.
In turn, `O=C(Cn1cccn1)N1CC(c2nc(-c3cccs3)no2)C1` came in with an RP-LC retention time of 644 s.
